# Results published in US20060263802A1 (priority 2003, published 2006).
# Experiments:
# Format in all cases: binding
# [1] = test system: human monoclonal antibody CR57
# [2] = test system: human monoclonal antibody CR57; remark: listed apart in the source
# [3] = test system: human monoclonal antibody CRJA
# [4] = test system: human monoclonal antibody CRJA; remark: listed apart in the source
# [5] = test system: human monoclonal antibody CRJB
# [6] = test system: human monoclonal antibody CRJB; remark: listed apart in the source
Sequence,Binding of CR57 (10 μg/ml) to looped/cyclic peptide (PEPSCAN-ELISA) [1],Binding of CR57 to linear peptide (PEPSCAN-ELISA signal) [2],Binding of CRJA to linear peptide (PEPSCAN-ELISA signal) [3],Binding of CRJA (10 μg/ml) to looped/cyclic peptide (PEPSCAN-ELISA) [4],Binding of CRJB (10 μg/ml) to looped/cyclic peptide (PEPSCAN-ELISA) [5],Binding of CRJB to linear peptide (PEPSCAN-ELISA signal) [6],Binding of CR57 to looped/cyclic peptide (PEPSCAN-ELISA signal) [1],Binding of human monoclonal antibody CR57 to linear peptide (PEPSCAN-ELISA signal) [2],Binding of human monoclonal antibody CRJA to linear peptide (PEPSCAN-ELISA signal) [3],Binding of CRJA to looped/cyclic peptide (PEPSCAN-ELISA signal) [4],Binding of CRJB to looped/cyclic peptide (PEPSCAN-ELISA signal) [5],Binding of human monoclonal antibody CRJB to linear peptide (PEPSCAN-ELISA signal) [6],Binding of CR57 (10 μg/ml) to looped/cyclic peptide (PEPSCAN-ELISA signal) [1],Binding of CRJA (10 μg/ml) to looped/cyclic peptide (PEPSCAN-ELISA signal) [4],Binding of CRJB (10 μg/ml) to looped/cyclic peptide (PEPSCAN-ELISA signal) [5]
CLRVGGRCHPHVNGV,101,102,103,111,104,132,,,,,,,,,
RGLYKSLKGACKLKL,96,90,107,113,96,121,,,,,,,,,
MQTSNETKWCPPDQL,138,104,112,74,33,132,,,,,,,,,
PLADPSTVFKDGDEA,,,,,,,148,99,84,97,97,125,,,
QQHMELLESSVIPLV,141,103,100,94,92,134,,,,,,,,,
DAHYKSVRTWNEILP,90,59,107,98,100,121,,,,,,,,,
SETCGFVDERGLYKS,58,33,71,56,78,116,,,,,,,,,
KAYTIFNKTLMEADA,137,101,76,104,92,123,,,,,,,,,
TNHDYTIWMPENPRL,,69,91,,,129,,,,,,,40,72,58
IISPSVADLDPYDRS,,83,98,,,125,,,,,,,115,106,93
LMEADAHYKSVRTWN,41,73,46,43,72,107,,,,,,,,,
VGYILAIKMNGFTCT,,77,70,,,93,,,,,,,97,105,86
DERGLYKSLKGACKL,152,90,76,85,123,119,,,,,,,,,
GCTNLSGFSYMELKV,,55,72,,,114,,,,,,,63,55,55
